Test results taken from patent publication US20160039825A1 (BIOGEN MA INC., priority 2013, published 2016).

Target: T1, Human ATX protein (Homo sapiens, UniProt Q13822)
T1 construct: made in house
Assay: Autotaxin (ATX) assay, FRET with FS-3 substrate
Assay type: biochemical
Conditions: upper bound bins (no greater than 100, 250 or 500 nM); FS-3 2 μM, ATX 1.0 μg/mL
Method in brief: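 In-house human ATX (1.0 μg/mL final) was preincubated with compound for 30 min at room temperature in Tris buffer pH 7.4 with NaCl, KCl, CaCl2, MgCl2 and 1 mg/mL fatty acid-free BSA. FS-3 (2 μM final) was added and the plate shaken 2 h at room temperature in the dark. Fluorescence was read at ex 485/em 538 nm.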

SMILES	IC50 [nM]
CC(c1cc2n(n1)CCCN(C(=O)OCc1cc(C(F)(F)F)cc(C(F)(F)F)c1)C2)N1CCCCC1 (stereo not drawn) [Example 148, 3,5-Bis(trifluoromethyl)benzyl 2-(1-(piperidin-1-yl)ethyl)-7,8-dihydro-4H-pyrazolo[1,5-a][1,4]diazepine-5(6H)-carboxylate]	≤ 100
O=C(OCc1cc(Cl)cc(C(F)(F)F)c1)N1CCCn2nc(CNC3=NCCN3)cc2C1 [Example 154, 3-chloro-5-(trifluoromethyl)benzyl 2-(((4,5-dihydro-1H-imidazol-2-yl)amino)methyl)-7,8-dihydro-4H-pyrazolo[1,5-a][1,4]diazepine-5(6H)-carboxylate]	≤ 250
CC(NC1=NCCN1)c1cc2n(n1)CCCN(C(=O)OCc1cc(Cl)cc(C(F)(F)F)c1)C2 (stereo not drawn) [Example 157, 3-chloro-5-(trifluoromethyl)benzyl 2-(1-((4,5-dihydro-1H-imidazol-2-yl)amino)ethyl)-7,8-dihydro-4H-pyrazolo[1,5-a][1,4]diazepine-5(6H)-carboxylate]	≤ 250
O=C(OCc1cc(Cl)cc(C(F)(F)F)c1)N1CCCn2nc(C(=O)N3CCNCC3)cc2C1 [Example 158, 3-chloro-5-(trifluoromethyl)benzyl 2-(piperazine-1-carbonyl)-7,8-dihydro-4H-pyrazolo[1,5-a][1,4]diazepine-5(6H)-carboxylate]	≤ 100
C[C@@H]1CNC[C@@H](C)N1C(=O)c1cc2n(n1)CCCN(C(=O)OCc1cc(Cl)cc(C(F)(F)F)c1)C2 [Example 161]	≤ 100
CC1CNCC(C)N1C(=O)c1cc2n(n1)CCN(C(=O)OCc1cc(Cl)cc(C(F)(F)F)c1)C2 (stereo not drawn) [Example 162, 3-chloro-5-(trifluoromethyl)benzyl 2-(2,6-dimethylpiperazine-1-carbonyl)-6,7-dihydropyrazolo[1,5-a]pyrazine-5(4H)-carboxylate]	≤ 100
C[C@@H]1CNC[C@H](C)N1C(=O)c1cc2n(n1)CCCN(C(=O)OCc1cc(C(F)(F)F)cc(C(F)(F)F)c1)C2 [Example 163]	≤ 100
O=C(OCc1cc(Cl)cc(C(F)(F)F)c1)N1CCCn2nc(C(=O)N3CCC4CNCC43)cc2C1 (stereo not drawn) [Example 165]	≤ 100
O=C(OCc1cc(Cl)cc(C(F)(F)F)c1)N1CCCn2nc(C(=O)N3CC4CCNC4C3)cc2C1 (stereo not drawn) [Example 167]	≤ 100
CN1CC2CN(C(=O)c3cc4n(n3)CCCN(C(=O)OCc3cc(Cl)cc(C(F)(F)F)c3)C4)CC2C1 (stereo not drawn) [Example 168]	≤ 100
O=C(OCc1cc(Cl)cc(C(F)(F)F)c1)N1CCCn2nc(C(=O)N3CC4CNCC4C3)cc2C1 (stereo not drawn) [Example 170]	≤ 100
N#CC1CN(C(=O)c2cc3n(n2)CCCN(C(=O)OCc2cc(Cl)cc(C(F)(F)F)c2)C3)CCN1 (stereo not drawn) [Example 171]	≤ 100
O=C(NC1=NCCS1)c1cc2n(n1)CCCN(C(=O)OCc1cc(C(F)(F)F)cc(C(F)(F)F)c1)C2 [Example 173]	≤ 100
O=C(OCc1cc(Cl)cc(C(F)(F)F)c1)N1CCCn2nc(C(=O)N3CCNCC34CCC4)cc2C1 [Example 175]	≤ 100
CN1CCN(C(=O)c2cc3n(n2)CCCN(C(=O)OCc2cc(Cl)cc(C(F)(F)F)c2)C3)C(C)(C)C1 [Example 176, 3-chloro-5-(trifluoromethyl)benzyl 2-(2,2,4-trimethylpiperazine-1-carbonyl)-7,8-dihydro-4H-pyrazolo[1,5-a][1,4]diazepine-5(6H)-carboxylate]	≤ 100
CN1CCN(C(=O)c2cc3n(n2)CCCN(C(=O)OCc2cc(Cl)cc(C(F)(F)F)c2)C3)C(C(F)(F)F)C1 (stereo not drawn) [Example 178]	≤ 100
CCN1CCN(C(=O)c2cc3n(n2)CCCN(C(=O)OCc2cc(Cl)cc(C(F)(F)F)c2)C3)C2(CC2)C1 [Example 179]	≤ 100
CN1CCN(C(=O)c2cc3n(n2)CCCN(C(=O)OCc2cc(Cl)cc(C(F)(F)F)c2)C3)C2(CC2)C1 [Example 180]	≤ 100
CN1CCN(C(=O)c2cc3n(n2)CCCN(C(=O)OCc2cc(Cl)cc(C(F)(F)F)c2)C3)CC1C(F)(F)F (stereo not drawn) [Example 186]	≤ 100
O=C(OCc1cc(Cl)cc(C(F)(F)F)c1)N1CCCn2nc(C(=O)N3CCNC4(CC4)C3)cc2C1 [Example 187]	≤ 100
O=C(OCc1cc(Cl)cc(C(F)(F)F)c1)N1CCCn2nc(C(=O)N3CC4CNC(C4)C3)cc2C1 (stereo not drawn) [Example 188]	≤ 100

More lines, now with the values ahead:

IC50 [nM]	SMILES
≤ 500	CC(c1cc2n(n1)CCCN(C(=O)OCc1cc(C(F)(F)F)cc(C(F)(F)F)c1)C2)N1CCC(C(=O)O)CC1 (stereo not drawn) [Example 149, 1-(1-(5-(((3,5-Bis(trifluoromethyl)benzyl)oxy)carbonyl)-5,6,7,8-tetrahydro-4H-pyrazolo[1,5-a][1,4]diazepin-2-yl)ethyl)piperidine-4-carboxylic acid]
≤ 100	O=C(OCc1cc(Cl)cc(C(F)(F)F)c1)N1CCCn2nc(CNC3=NCCS3)cc2C1 [Example 153, 3-chloro-5-(trifluoromethyl)benzyl 2-(((4,5-dihydrothiazol-2-yl)amino)methyl)-7,8-dihydro-4H-pyrazolo[1,5-a][1,4]diazepine-5(6H)-carboxylate]
≤ 100	CC(NC1=NCCS1)c1cc2n(n1)CCCN(C(=O)OCc1cc(Cl)cc(C(F)(F)F)c1)C2 (stereo not drawn) [Example 156, 3-chloro-5-(trifluoromethyl)benzyl 2-(1-((4,5-dihydrothiazol-2-yl)amino)ethyl)-7,8-dihydro-4H-pyrazolo[1,5-a][1,4]diazepine-5(6H)-carboxylate]
≤ 100	CN1CC2CCC1CN2C(=O)c1cc2n(n1)CCCN(C(=O)OCc1cc(Cl)cc(C(F)(F)F)c1)C2 (stereo not drawn) [Example 159, 3-chloro-5-(trifluoromethyl)benzyl 2-(5-methyl-2,5-diazabicyclo[2.2.2]octane-2-carbonyl)-7,8-dihydro-4H-pyrazolo[1,5-a][1,4]diazepine-5(6H)-carboxylate]
≤ 100	C[C@H]1CNC[C@H](C)N1C(=O)c1cc2n(n1)CCCN(C(=O)OCc1cc(Cl)cc(C(F)(F)F)c1)C2 [Example 160]
≤ 100	C[C@@H]1CNC[C@H](C)N1C(=O)c1cc2n(n1)CCCN(C(=O)OCc1cc(Cl)cc(C(F)(F)F)c1)C2 [Example 164]
≤ 100	O=C(OCc1cc(Cl)cc(C(F)(F)F)c1)N1CCCn2nc(C(=O)N3CCC4NCCC43)cc2C1 (stereo not drawn) [Example 166]
≤ 100	O=C(OCc1cc(Cl)cc(C(F)(F)F)c1)N1CCCn2nc(C(=O)N3CCC4(CCNCC4)C3)cc2C1 [Example 169]
≤ 100	CCN1CCN(C(=O)c2cc3n(n2)CCCN(C(=O)OCc2cc(Cl)cc(C(F)(F)F)c2)C3)C(C)(C)C1 [Example 172]
≤ 100	CN1CCN(C(=O)c2cc3n(n2)CCCN(C(=O)OCc2cc(Cl)cc(C(F)(F)F)c2)C3)C2(CCC2)C1 [Example 174]
≤ 100	O=C(OCc1cc(Cl)cc(C(F)(F)F)c1)N1CCCn2nc(C(=O)N3CCNCC3C(F)(F)F)cc2C1 (stereo not drawn) [Example 181]
≤ 100	NCCCCNC(=O)c1cc2n(n1)CCCN(C(=O)OCc1cc(C(F)(F)F)cc(C(F)(F)F)c1)C2 [Example 182]
≤ 100	CN1CCN(C(=O)c2cc3n(n2)CCCN(C(=O)OCc2cc(Cl)cc(C(F)(F)F)c2)C3)C(C#N)C1 (stereo not drawn) [Example 183]
≤ 100	CN1CCN(C(=O)c2cc3n(n2)CCCN(C(=O)OCc2cc(Cl)cc(C(F)(F)F)c2)C3)C(C(=O)O)C1 (stereo not drawn) [Example 184]
≤ 100	CN1CCN(C(=O)c2cc3n(n2)CCCN(C(=O)OCc2cc(Cl)cc(C(F)(F)F)c2)C3)CC1C(=O)O (stereo not drawn) [Example 185]
